Measured values published in patent US20180099931A1 (AbbVie S.à.r.l., priority 2016, published 2018).
Where two headings read alike, the source gives them in different places.

Target: T1, F508delCFTR (Homo sapiens, UniProt P13569, DEL508-508)
T1 construct: expressed in transfected cells; host or cells: CFBE41o- human lung-derived epithelial cells (CFBE4lo-F508delCFTR-HRP), doxycycline-inducible
Test: Cell Surface Expression-Horse Radish Peroxidase (CSE-HRP) Assay;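 for Maximum % activity (with co-corrector): co-corrector and positive control are both the same reference corrector at 2 µM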;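 for Maximum % activity (without co-corrector): percent of the 2 µM on-plate positive control corrector response above DMSO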
Format: cell-based
Conditions: for Emax / Maximum % activity (with co-corrector): maximum at any tested concentration, normalized to on-plate positive control; for Emax: read-out: Maximum % activity (without co-corrector)
Protocol: Cell Surface Expression-Horse Radish Peroxidase (CSE-HRP) Assay;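 for Maximum % activity (with co-corrector): co-corrector and positive control are both the same reference corrector at 2 µM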;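 for Maximum % activity (without co-corrector): percent of the 2 µM on-plate positive control corrector response above DMSO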
The development was achieved by expressing the F508delCFTR mutation along with a horseradish peroxidase (HRP) in the fourth exofacial loop, and then measuring the HRP activity using luminescence readout from these cells, CFBE4lo-F508delCFTR-HRP, that were incubated overnight with the test corrector compounds, either without or with the co-corrector. […] The test compounds were then added either without or with a co-corrector at the required concentrations and further incubated for 18-24 hours at 33° C. The highest concentration tested was 20 μM with an 8-point concentration response curve using a 3-fold dilution in both the test compound without or with the co-corrector. Three replicate plates were run to determine one EC50. All plates contained negative controls (dimethyl sulfoxide, DMSO) and positive control (2 μM of 3-[(2R,4R)-4-({[1-(2,2-difluoro-1,3-benzodioxol-5-yl)cyclopropyl]carbonyl}amino)-7-methoxy-3,4-dihydro-2H-chromen-2-yl]benzoic acid) as well as on-plate concentration response of the positive control. […] The raw counts from the experiment were analyzed using Accelrys® Assay Explorer v3.3.
1−[3*SDPositive Control+3*SDNegative Control/Absolute(MeanPositive Control−MeanNegative Control)]
wherein “SD” is standard deviation.
The % activity measured at each of the 8 test concentrations of the test compound added either without or with a co-corrector (2 μM of 3-[(2R,4R)-4-({[1-(2,2-difluoro-1,3-benzodioxol-5-yl)cyclopropyl]carbonyl}amino)-7-methoxy-3,4-dihydro-2H-chromen-2-yl]benzoic acid) was normalized to the on-plate positive control using the following formulae:
% activity(Test compound without co-corrector)=[(test compound without co-corrector response−DMSO response)/(positive control response−DMSO response)]*100
% activity(Test compound with co-corrector)=[(test compound with co-corrector response−DMSO response)/(positive control response−DMSO response)]*100
The maximum % activity achieved for the test compound either without or with a co-corrector at any tested concentration is presented in Table 4 along with the respective EC50's calculated using the following general sigmoidal curve with variable Hill slope equation (described as Model 42 in the Accelrys® Assay Explorer v3.3 software):
General sigmoidal curve with concentration, response, top, bottom, EC50 and Hill slope. This model describes a sigmoidal curve with an adjustable baseline, a. The equation can be used to fit curves where response is either increasing or decreasing with respect to the independent variable, “x”.
“x” is a concentration of drug under test. “y” is the response. “a” is the maximum response, and “d” is the minimum response “c” is the inflection point (EC50) for the curve. That is, “y” is halfway between the lower and upper asymptotes when x=c. “b” is the slope-factor or Hill coefficient. The sign of b is positive when the response increases with increasing dose and is negative when the response decreases with increasing dose (inhibition).

[1] = test compound without co-corrector
[2] = test compound without co-corrector, read-out: EC50 (without co-corrector)
[3] = with co-corrector (2 μM of 3-[(2R,4R)-4-({[1-(2,2-difluoro-1,3-benzodioxol-5-yl)cyclopropyl]carbonyl}amino)-7-methoxy-3,4-dihydro-2H-chromen-2-yl]benzoic acid)
[4] = with co-corrector (2 μM of 3-[(2R,4R)-4-({[1-(2,2-difluoro-1,3-benzodioxol-5-yl)cyclopropyl]carbonyl}amino)-7-methoxy-3,4-dihydro-2H-chromen-2-yl]benzoic acid), read-out: EC50 (with co-corrector)
[5] = CSE-HRP, test compound without co-corrector, read-out: EC50 (without co-corrector)
[6] = CSE-HRP, with co-corrector (2 μM of 3-[(2R,4R)-4-({[1-(2,2-difluoro-1,3-benzodioxol-5-yl)cyclopropyl]carbonyl}amino)-7-methoxy-3,4-dihydro-2H-chromen-2-yl]benzoic acid), read-out: EC50 (with co-corrector)
[7] = CSE-HRP, with co-corrector (2 μM)

T1 sequence (P13569 with tags, fused parts or gaps DEL508-508): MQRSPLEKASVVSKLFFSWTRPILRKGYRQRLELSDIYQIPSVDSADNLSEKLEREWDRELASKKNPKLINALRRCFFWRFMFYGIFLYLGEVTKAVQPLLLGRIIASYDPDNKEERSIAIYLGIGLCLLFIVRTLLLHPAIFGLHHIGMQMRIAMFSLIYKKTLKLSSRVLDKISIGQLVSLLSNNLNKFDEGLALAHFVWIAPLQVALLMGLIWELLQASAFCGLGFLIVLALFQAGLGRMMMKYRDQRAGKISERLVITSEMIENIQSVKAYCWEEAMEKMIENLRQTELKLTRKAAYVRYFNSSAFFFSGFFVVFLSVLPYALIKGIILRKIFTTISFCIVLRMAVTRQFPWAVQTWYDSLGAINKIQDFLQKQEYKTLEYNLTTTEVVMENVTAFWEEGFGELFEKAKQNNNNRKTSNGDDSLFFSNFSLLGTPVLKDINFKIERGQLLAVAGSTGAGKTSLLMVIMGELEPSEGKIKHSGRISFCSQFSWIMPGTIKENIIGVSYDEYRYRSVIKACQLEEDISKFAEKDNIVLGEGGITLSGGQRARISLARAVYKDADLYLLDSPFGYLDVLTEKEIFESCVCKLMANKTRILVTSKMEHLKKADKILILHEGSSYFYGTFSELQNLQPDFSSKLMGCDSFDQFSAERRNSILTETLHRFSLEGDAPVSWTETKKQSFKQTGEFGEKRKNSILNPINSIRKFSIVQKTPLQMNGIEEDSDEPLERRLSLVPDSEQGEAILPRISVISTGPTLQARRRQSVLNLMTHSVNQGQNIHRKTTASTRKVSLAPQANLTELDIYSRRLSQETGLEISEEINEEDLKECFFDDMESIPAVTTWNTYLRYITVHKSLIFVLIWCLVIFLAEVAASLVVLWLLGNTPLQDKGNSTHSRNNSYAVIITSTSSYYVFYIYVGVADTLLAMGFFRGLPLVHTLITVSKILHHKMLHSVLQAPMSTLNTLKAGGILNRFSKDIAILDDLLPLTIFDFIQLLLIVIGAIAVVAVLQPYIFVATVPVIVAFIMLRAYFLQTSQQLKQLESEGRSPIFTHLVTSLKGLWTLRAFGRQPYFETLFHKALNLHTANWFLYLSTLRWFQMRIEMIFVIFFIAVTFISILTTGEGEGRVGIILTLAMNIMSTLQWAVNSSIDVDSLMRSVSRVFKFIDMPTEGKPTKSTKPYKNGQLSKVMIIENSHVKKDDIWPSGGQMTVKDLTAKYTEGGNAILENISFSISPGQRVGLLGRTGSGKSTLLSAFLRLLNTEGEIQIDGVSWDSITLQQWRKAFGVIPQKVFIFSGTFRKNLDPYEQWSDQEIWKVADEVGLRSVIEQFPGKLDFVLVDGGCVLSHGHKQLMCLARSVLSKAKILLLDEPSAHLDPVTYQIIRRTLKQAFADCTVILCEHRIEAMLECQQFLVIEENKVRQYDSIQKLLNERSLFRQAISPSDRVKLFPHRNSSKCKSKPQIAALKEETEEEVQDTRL

Row | Structure (SMILES) | Emax [1] | EC50 [2] | Maximum % activity (with co-corrector) [3] | EC50 [4] | EC50 [5] | EC50 [6] | Maximum % activity (with co-corrector) [7] | Emax (CSE-HRP, without co-corrector) | Maximum % activity (with co-corrector) (with co-corrector (2 μM)) | Emax (without co-corrector)
1 | COc1cc2c(cc1CN[C@H]1[C@H](C(C)(C)C)[C@@H](C(=O)O)N(C(=O)OC(C)C)[C@H]1c1cccnc1N(C)C)CCCC2 [II-565] | 100 to 200% | 1 to 10 µM | +++ (≥350) | 1 to 10 µM | – | – | – | – | – | –
2 | COc1ccc(CN[C@@H]2[C@@H](C(C)(C)C)[C@H](C(=O)O)N(C(=O)C3CCCCC3)[C@@H]2c2ccccc2)c(OC)c1Cl (racemic) [II-3] | – | – | – | – | 1 to 10 µM | 1 to 10 µM | ++ (≥150 and <350) | < 100% | – | –
3 | COc1ccc(C(F)(F)F)cc1C(C)N[C@@H]1[C@@H](C(C)(C)C)[C@H](C(=O)O)N(C(=O)C2CCCCC2)[C@@H]1c1ccccc1 (mixture of isomers) [Example I-8] | – | 1 to 10 µM | – | 1 to 10 µM | – | – | – | – | ++ (≥150 and <350) | < 100%
4 | CC(C)(C)[C@H]1[C@H](NCc2ccc(F)cc2OCC2CC2)[C@H](c2ccccc2)N(C(=O)C2CCCCC2)[C@@H]1C(=O)O [Example I-50] | – | 1 to 10 µM | – | 1 to 10 µM | – | – | – | – | ++ (≥150 and <350) | < 100%
5 | COc1ccc(C2(C#N)CCC2)cc1CN[C@H]1[C@H](C(C)(C)C)[C@@H](C(=O)O)N(C(=O)C2CCCCC2)[C@H]1c1ccccc1 [Example I-155] | – | 1 to 10 µM | – | 1 to 10 µM | – | – | – | – | +++ (≥350) | 100 to 200%
6 | COc1cc(C(C)(C)C)ccc1CN[C@H]1[C@H](C(C)(C)C)[C@@H](C(=O)O)N(C(=O)C2CCCCC2)[C@H]1c1ccccc1OC(F)F [II-124] | – | – | – | – | < 1 µM | < 1 µM | +++ (≥350) | 100 to 200% | – | –
7 | COc1cccc(-c2cc(CN[C@H]3[C@H](C(C)(C)C)[C@@H](C(=O)O)N(C(=O)C4CCCCC4)[C@H]3c3ccccc3)c(OC)cn2)c1 [II-418] | < 100% | 1 to 10 µM | +++ (≥350) | 1 to 10 µM | – | – | – | – | – | –
8 | COc1ccc(C(F)(F)F)cc1CN[C@@H]1[C@@H](C(C)(C)C)[C@H](C(=O)O)N(C(=O)C2CCCCC2)[C@H]1c1ccccc1 [III-199] | < 100% | 1 to 10 µM | – | 1 to 10 µM | – | – | – | – | ++ (≥150 and <350) | –
9 | COc1ccc(C(C)(C)C)cc1CN[C@H]1[C@H](C(C)(C)C)[C@@H](C(=O)O)N(C(=O)C2CCc3ccccc3O2)[C@H]1c1cccnc1N(C)C (single isomer, unassigned) [II-438] | < 100% | 1 to 10 µM | ++ (≥150 and <350) | – | – | – | – | – | – | –
10 | COc1ncc(C2CC2)cc1CN[C@H]1[C@H](C(C)(C)C)[C@@H](C(=O)O)N(C(=O)C2CCCCC2)[C@H]1c1ccccc1 [II-259] | – | – | – | – | 1 to 10 µM | 1 to 10 µM | +++ (≥350) | 100 to 200% | – | –
11 | COc1ccc(C(C)(C)C)cc1CN[C@H]1[C@H](C(C)(C)C)[C@@H](C(=O)O)N(C(=O)Cc2ccc(C)cc2)[C@H]1c1ccccc1 [II-204] | – | – | – | – | < 1 µM | < 1 µM | +++ (≥350) | 100 to 200% | – | –
12 | COc1cc(C(F)(F)F)ccc1CN[C@H]1[C@H](C(C)(C)C)[C@@H](C(=O)O)N(C(=O)[C@@H]2CCCCO2)[C@H]1c1ccccc1Br [Example I-289] | – | – | – | – | 1 to 10 µM | < 1 µM | +++ (≥350) | 100 to 200% | – | –
